Earlier results as cited in US8932634B2, “Hydrocolloid carrier beads with inert filler material” (Yissum Research Development Company of the Hebrew …, priority 2006, dated 2015).
Counter-ions that a name gives are not always drawn.

- solubility in water: high
Compound: COc1ccc([C@@H]2Sc3ccccc3N(CCN(C)C)C(=O)[C@@H]2OC(C)=O)cc1 [Diltiazem hydrochloride]
